Results reported in US10555987B2, “GHRH agonists for the treatment of ischemic disorders” (UNIVERSITY OF MIAMI, priority 2012, dated 2020).
Where “and” joins values, the source holds several entries; their conditions need not be identical. Identical values can stand only once. Entries after “also recorded” stand apart in the source; their conditions may differ. Non-standard residues stand in square brackets, D forms with d. Residues, ends and D or L forms follow the SMILES beside them. *: point of attachment. NMeY = CN[C@@H](Cc1ccc(O)cc1)C(=O)O; Agmatine = N=C(N)NCCCCN*; Nle = CCCC[C@H](N)C(=O)O; Orn = NCCC[C@H](N)C(=O)O; Abu = CC[C@H](N)C(=O)O

Key:
GH release [1] = experiment: In vivo endocrine activity, GH release after subcutaneous administration (Table 9); conditions: rat; for GH releasing potency relative to JI-38 (=1): subcutaneous (s.c.) injection
Procedure: Subcutaneous Administration. Adult male rats were used and anesthetized with pentobarbital (6 mg/100 g, b.w.), by i.p. injection. […] Blood samples were taken from the jugular vein 5, 15 and/or 30 minutes after the injection. The blood samples were centrifuged, plasma was removed and the GH level was measured byELISA. The results are summarized in terms of potency in Table 9.

[2] = system: myocardial infarction (Fisher-344 rats); experiment: Morphometric analysis of infarct size, rat MI model (Example 13); assay type: in vivo; conditions: 50 μg/kg s.c. twice daily for 4 weeks; mean ± SEM
Procedure: (§1) Myocardial infarction (MI) was induced by permanent ligation of the left coronary artery in female 6-month-old Fisher-344 rats. Animals were randomly assigned to receive placebo (DMSO+propylene glycol) or one of the GHRH-agonists (JI-38, MR-356/P-20356, MR-409/P-27409, all 50 μg/kg), starting 4 weeks post-MI. All treatment was given subcutaneously twice daily for 4 weeks.
Rat hearts were processed using routine histological procedures. Samples were fixed in formalin.
(§2) Paraffin sections were deparaffinized and rehydrated by immersion in xylene followed by a graded series of ethanol. Antigen retrieval was performed by a heat-induced method with citrate buffer (Dako, Carpinteria, Calif.). After blocking with 10% normal donkey serum, sections were incubated with a primary antibody at 37° C. for 1 hour, followed by application of secondary antibody. Omission of the primary antibodies on parallel sections was used as negative control. Nuclei were counterstained with DAPI (Invitrogen, Carlsbad, Calif.). The total numbers of positively-stained cells (c-kit, CD45, phospho-histone H3 [pH3]) were quantified per slide to calculate the number of cells per section on each sample. Morphometric analysis was performed using Adobe Photoshop CS3 (San Jose, Calif.).

[3] = system: myocardial infarction (Fisher-344 rats); experiment: Immunostaining of heart tissue (pH3, c-kit, arterioles), rat MI model (Example 13); assay type: in vivo
Procedure: as §1, §2
Heart sections were co-stained with isolectin (endothelial cell marker) and vascular smooth muscle (SMA22a) to identify arterioles which play a crucial role in cardiac repair. […] An inverse correlation between number of arterioles and infarct size was observed (FIG. 5C).

GH release [4] = experiment: GH releasing potency in vivo, subcutaneous administration (Example 14, Table 12); parameters: species or system rat
How it was run: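 Potency is expressed relative to GHRH(1-29)NH2 and JI-38 (each = 1), via equivalent GHRH(1-29)NH2 dose read from a standard curve. Peptides in 5% mannitol given i.v. or s.c. to anaesthetised male Sprague-Dawley rats (200-250 g); serum GH measured by ELISA at selected times.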

[5] = system: myocardial infarction (Fischer 344 rats); experiment: Morphometric analysis, percentage of infarcted myocardium (Example 14); assay type: in vivo, rat; conditions: vs. placebo, FIG. 8; listed as MR-356
Procedure: MI was induced in female 6-month-old Fischer 344 rats by permanent ligation of left ventricular (LV) anterior descending coronary artery. Animals were randomly assigned to receive placebo or one of the following GHRH agonists (MR-356, MR-361, MR-367, MR-403, MR-404, MR-409 and MR-502) starting 2 hours post-surgery. All treatment (50 μg/kg) was given subcutaneously twice daily for 4 weeks. The Institutional Animal Care and Use committee of the University of Miami approved all protocols and experimental procedures.
Slides were prepared with H&E and Masson's trichrome stain to assess cardiac structure and the presence and extent of myocardial scar, respectively. The percentage of infarcted myocardium was calculated.

GHRH receptor = biological target: T1, GHRH receptor (Homo sapiens, UniProt Q02643); experiment: GHRH receptor binding, competition with 125I-labeled JV-1-42, human pituitary membrane homogenates (Table 5); parameters: Normal human pituitaries were purchased from the National Hormone and Peptide Program; tissue National Hormone and Peptide Program (A.F. Parlow, Harbor-UCLA Medical Center, Torrance, Calif.); host or cells: normal human pituitary, membrane fraction
T1 sequence (Q02643 23-423): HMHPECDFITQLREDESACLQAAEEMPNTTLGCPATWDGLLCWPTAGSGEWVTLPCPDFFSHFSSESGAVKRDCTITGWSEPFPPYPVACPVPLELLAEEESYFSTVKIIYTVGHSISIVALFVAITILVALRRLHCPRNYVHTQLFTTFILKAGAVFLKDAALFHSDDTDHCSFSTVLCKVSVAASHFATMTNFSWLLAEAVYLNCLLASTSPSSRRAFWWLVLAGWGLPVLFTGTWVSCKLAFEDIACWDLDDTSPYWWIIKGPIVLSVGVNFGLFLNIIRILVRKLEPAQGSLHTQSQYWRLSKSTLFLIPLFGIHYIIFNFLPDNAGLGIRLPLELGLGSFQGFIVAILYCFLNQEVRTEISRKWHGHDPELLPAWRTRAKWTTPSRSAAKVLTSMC

[6] = 50 μg/kg s.c. twice daily for 4 weeks, mean ± SEM

SMILES: CCCC[C@H](NC(=O)[C@@H](NC(=O)[C@H](CC(=O)O)NC(=O)[C@H](CCC(N)=O)NC(=O)[C@H](CC(C)C)NC(=O)[C@H](CC(C)C)NC(=O)[C@H](CCCN)NC(=O)[C@H](CCCNC(=N)N)NC(=O)[C@H](C)NC(=O)[C@H](CO)NC(=O)[C@H](CC(C)C)NC(=O)[C@H](CCC(N)=O)NC(=O)[C@H](CC)NC(=O)[C@H](CC(C)C)NC(=O)[C@@H](NC(=O)[C@H](CCCN)NC(=O)[C@H](CCCNC(=N)N)NC(=O)[C@H](Cc1ccc(O)cc1)NC(=O)[C@H](CO)NC(=O)[C@H](CCC(N)=O)NC(=O)[C@@H](NC(=O)[C@H](Cc1ccccc1)NC(=O)[C@@H](NC(=O)[C@H](C)NC(=O)[C@H](CC(=O)O)NC(=O)[C@H](C)NC(=O)[C@H](Cc1ccc(O)cc1)NC)[C@@H](C)CC)[C@@H](C)O)C(C)C)[C@@H](C)CC)C(=O)N[C@@H](CC(=O)O)C(=O)NCCCCNC(=N)N [Peptide P-20356, [N—Me-Tyr^1, Gln^8, Orn^12, Abu^15, Orn^21, Nle^27, Asp^28, Agm^29]hGHRH(1-29) NH2] (H-[NMeY]ADAIFTQSYR[Orn]VL[Abu]QLSAR[Orn]LLQDI[Nle]D-Agmatine)
- Stimulation of growth hormone levels after subcutaneous administration (in words) (GH release [1]; s.c.): stimulated greater growth hormone levels than hGHRH or JI-38
- GH releasing potency relative to JI-38 (=1) (GH release [1]; 15 min after): 1.72
- GH releasing potency relative to JI-38 (=1) (GH release [1]; 30 min after): 1.09
- MI size (%) [2]: 37 ± 2.5 %
- c-kit (positive cells in the heart) [3, 6]: 59 ± 7.1
- phospho H3 (positive cells in the heart) [3, 6]: 65 ± 9.3
- number of arterioles ([3]; isolectin / SMA22a co-staining of heart sections): significantly increased
- potency as compared to JI-38 in both i.v. and s.c. tests (GH release [4]; both i.v. and s.c. tests): increased potency as compared to JI-38
- Serum GH level at selected time after injection (ng/ml), 0 min (GH release [4]; male rats, s.c., dose 3 μg/kg, 0 min, mean ± SEM): 25.3 ± 3.9 ng/mL
- Serum GH level at selected time after injection (ng/ml), 15 min (GH release [4]; male rats, s.c., dose 3 μg/kg, 15 min, mean ± SEM): 305.4 ± 40.0 ng/mL
- Serum GH level at selected time after injection (ng/ml), 30 min (GH release [4]; male rats, s.c., dose 3 μg/kg, 30 min, mean ± SEM): 152.4 ± 21.8 ng/mL
- Relative potency compared to GHRH(1-29), 15 min (GH release [4]; s.c., 15 min): 91.2
- Relative potency compared to JI-38, 15 min (GH release [4]; s.c., 15 min, listed as MR-356): 1.4 and 1.45
- Relative potency compared to GHRH(1-29), 30 min (GH release [4]; s.c., 30 min): 150.9
- Relative potency compared to JI-38, 30 min (GH release [4]; s.c., 30 min, listed as MR-356): 1.4 and 1.35
- infarct size (MI %) [5]: significantly attenuated; also recorded: substantial reductions
- Relative affinity (Binding potency) vs GHRH (GHRH receptor; GHRH(1-29) = 1, Table 5): 406.0
- Relative affinity (Binding potency) vs JI-38 (GHRH receptor; JI-38 = 1, Table 5): 171
